Data from patent US5783568A, “Methods for treating cancer and other cell proliferative diseases” (Sugen, Inc., priority 1994, dated 1998).
Entries after “also recorded” stand apart in the source; their conditions may differ.

Columns and labels:
FGFR2 (bek) = assay: Cross-linking (BS^3) of FGF receptors in mutant CHO-pgsD-677 cells, receptor dimerization; type: cell-based, human; details: 0.1 nM aFGF, with or without 50 nM heparin
Experimental: Parental (lanes 1-4) and mutant CHO cells (lanes 5-8) were incubated with either 50 nM heparin (lanes 2 and 6), 0.1 nM aFGF (lanes 3 and 7), or both (lanes 4 and 8), for 1 hour at 4° C. Cells were then treated with the covalent cross-linking agent BS^3 for […] at room temperature, solubilized and immunoprecipitated with anti-FGFR2 antibodies. The samples were analyzed by a gradient SDS gel (6-8%), transferred to nitrocellulose membranes and probed with anti-FGFR2 antibodies. M--FGFR monomers; D--FGFR dimers.
Cells grown in fibronectin-coated dishes were starved overnight in F-12 medium containing 0.5% FBS. Cells were then washed with ice-cold binding medium (F-12 medium containing 20 mM Hepes (pH 7.5) and 0.1% BSA), and incubated for 1 hour at 4° C. with either aFGF (0.1 nM), heparin (50 nM), or both. The cells were then washed twice with cold PBS and incubated with 1 mM BS^3 in PBS for 20 minutes at room temperature. The cross-linking reaction was quenched by the addition of 50 mM Tris-HCl and 100 mM glycine for 10 min at room temperature. […]
Full-length FGFR2 was transfected into two CHO cell lines; wild-type CHO-K1, and the mutant CHO-pgsD-677, which is defective in heparin sulfate expression at its cell-surface (Esko, 1991). […] Cells were then lysed, and immunoprecipitated FGFR2 was analyzed by SDS-PAGE followed by immunoblotting with anti-FGFR2 antibodies.

[1] = tested on: sFGFR (soluble extracellular domain of FGFR2); assay: Covalent cross-linking (DSS) of sFGFR, dimerization; type: biochemical, human
Experimental: Purified sFGFR was incubated with aFGF in the presence (lanes 2, 4, 6 and 8) or absence (lanes 1, 3, 5 and 7) of heparin for 1 hour at room temperature. The covalent cross-linker, DSS, was then added and incubation was continued for a further 45 minutes. Samples were then boiled in Laemmli sample buffer, separated by SDS-PAGE (6-12% gradient gel), and transferred to a nitro-cellulose membrane. The protein bands were visualized by blotting with anti-FGFR2 (lanes 1-4) or anti-aFGF antibodies (lanes 5-8), followed by ^125 I-protein A. I-sFGFR monomers; II-aFGF/sFGFR complex (monomeric); III-aFGF/sFGFR complex (dimeric).
A plasmid encoding the extracellular, ligand-binding domain of human FGFR2 (residues 1-355) was constructed using standard oligonucleotide-directed mutagenesis (Amersham) to introduce a translational termination codon immediately prior to the beginning of the single transmembrane domain of the receptor (Dionne et al., 1990). BamHI and SacII restriction sites were introduced 3' to the new termination codon. An XbaI-SacII fragment was isolated from the replicative form (RF) of this M13 mutagenesis product, filled in using T4 DNA polymerase (Boehringer-Mannheim) and inserted into the SmaI site of the expression vector pCVN (Dionne et al., 1990). This expression vector, which contains both the neomycin resistance and the dihydrofolate reductase genes for selection and amplification, was transfected into CHO cells following published procedures. Wigler et al., 1979, Cell 16:777-785.
Purified sFGFR (0.2 μM) was incubated with aFGF (0.6 μM) in the presence or absence of heparin. […] Cross-linking studies of aFGF alone were performed using the same procedure, except that samples were analyzed by 15% SDS-PAGE and detected by staining with Coomassie Brilliant Blue.
If aFGF activates its receptor in a similar manner, aFGF binding to sFGFR would therefore be expected to promote its dimerization. […] Samples were then analyzed by SDS-PAGE, followed by immunoblotting with either anti-FGFR2 or anti-aFGF antibodies. […]

aFGF [2] = biological target: T1, aFGF (Homo sapiens, UniProt P05230); details: Mach et al., 1993; cited from earlier work
T1 construct: made in house; host or cells: E. coli

aFGF [3] = biological target: T1, aFGF; assay: Isothermal titration calorimetry, binding to aFGF; details: from ITC stoichiometry

T1 sequence (P05230 whole entry): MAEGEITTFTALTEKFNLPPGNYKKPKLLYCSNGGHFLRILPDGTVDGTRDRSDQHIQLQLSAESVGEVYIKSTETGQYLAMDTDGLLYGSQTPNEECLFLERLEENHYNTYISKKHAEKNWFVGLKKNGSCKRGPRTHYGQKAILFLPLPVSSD

saccharide units of heparin per one bound aFGF (aFGF [3])	Substance	receptor dimerization in mutant CHO-pgsD-677 cells (FGFR2 (bek))	sFGFR dimerization, aFGF alone ([1]; no heparin)	sFGFR dimerization, heparin plus aFGF ([1]; both heparin and aFGF)	effect on mobility of sFGFR, heparin alone ([1]; no aFGF)	binding to aFGF (aFGF [2])
	aFGF: aFGF was expressed in E. coli and purified by binding to a heparin-sepharose column	could only induce the dimerization of FGFR2 when exogenous heparin was added; also recorded: can only induce FGFR dimerization in the presence of heparin	No cross-linked dimeric form of sFGFR could be detected; also recorded: they were not detected in the presence of aFGF alone; also recorded: did not, however, result in the formation of dimers of the receptor extracellular domain			
4-5 saccharide units	heparin			cross-linked dimers of sFGFR are formed under these conditions; also recorded: the binding of aFGF to sFGFR did lead to its dimerization	did not affect the mobility of sFGFR	relatively high affinity, in a multivalent fashion
